# Where a name gives a salt, the structure may show the parent alone. Read-outs that look alike come from different tables or passages of the source.
# Columns and labels:
# MCL-1 = MCL-1 (Homo sapiens, UniProt Q07820); test: Protein-protein interaction assay MCL-1/Noxa BH3 peptide (MCL-1 assay), TR-FRET; type: binding; settings: MBP-MCL-1 / Noxa BH3-derived peptide, median
# Description: Protein-Protein Interaction Assay: MCL-1/Noxa BH3 Peptide (MCL-1 Assay) […]
# In the assay 11 different concentrations of each compound (0.1 nM, 0.33 nM, 1.1 nM, 3.8 nM, 13 nM, 44 nM, 0.15 μM, 0.51 μM, 1.7 μM, 5.9 μM and 20 μM) were typically measured as duplicates in the same microtiter plate. For that, 100-fold concentrated DMSO solutions were prepared by serial dilutions (1:3.4) of a 2 mM stock solution in a clear, 384-well microtiter plate (Greiner Bio-One, Frickenhausen, Germany). From there, 50 ni were transferred in a dark test plate (Greiner Bio-One, Frickenhausen, Germany). The assay was initiated by addition of 2 μl of a 2.5-fold concentrated MBP-MCL-1 solution (usually for a 1 nM end concentration in 5 μl reaction volume) in aqueous assay buffer [50 mM Tris/HCl pH 7, 100 mM sodium chloride (NaCl), 50 mM potassium fluoride (KF), 0.005% Tween-20, 2 mM DTT, 0.1% bovine gamma globulin (BGG)] to the compounds in the assay plate. This was followed by a 10-minute incubation step at 22° C. for pre-equilibration of the putative complex between MBP-MCL-1 and the compounds. After that.
# The mixture was incubated in the dark for one hour at 22° C. and then overnight at 4° C. The formation of MCL-1/Noxa complexes was determined by measuring the resonance energy transfer of the anti-MBP- Eu-cryptate antibody to the streptavidin-XL665 present in the reaction. For that purpose, the fluorescence emission at 620 nm and 665 nm after excitation at 330-350 nm was measured in a TR-FRET measuring instrument, for instance a Rubystar or a Pherastar (both from BMG Lab Technologies, Offenburg, Germany) or a Viewlux (Perkin-Elmer). The ratio of the emission at 665 nm and at 622 nm was used as indicator of the amount of MCL-1/NOXA complexes present.
# The resulting data (ratio) were normalized, taking 0% inhibition as the mean value of control measurements (usually 32 data points) where all reagents were included. In this case 50 nl DMSO were used instead of compounds. A 100% inhibition corresponded to the mean value of control measurements (usually 32 data points) where all reagents except MCL-1 were included. IC50 values were determined by regression analysis based on a 4 parameter equation (minimum, maximum, IC50, Hill; Y=Max+(Min−Max)/(1+(X/IC50)^Hill) using the Screener Software (Genedata).
# SUDHL5 [1] = test: Induction of caspase-3/7 activity (Caspase-Glo 3/7), SUDHL5; type: cell-based; settings: caspase-3/7 induction, SUDHL5 cells, 3 h treatment, median
# Description: (§1) Induction of Caspase-317 Activity Upon Treatment of Cells with Selected Compounds
# (§2) The BH3-domain of MCL-1 sequesters pro-apoptotic proteins, thereby inhibiting apoptosis. In contrast, MCL-1 inhibitors are expected to antagonize this effect leading to an increase in apoptosis, which can be determined by measuring the activity of caspase-3/7.
# (§3) The activity of caspase-3/7 was determined in DLBCL (Diffuse large B-cell lymphoma) cell lines (SUDHL5 and SUDHL10) upon treatment with different compounds, using the Caspase-Glo® 3/7 reagent from Promega (G8092).
# (§4) Rim wells were excluded. The cells were incubated for 3 h hours in a humidified incubator at 37° C.
# (§5) For the evaluation of the results, the background measured with “medium-only” was subtracted from all other values. […] The Bella DRC Master Sheet was used to calculate EC50s, with fixed C0=1 and CI=plateaulmax induction for the reference compound.
# SUDHL10 [2] = test: Induction of caspase-3/7 activity (Caspase-Glo 3/7), SUDHL10; type: cell-based; settings: caspase-3/7 induction, SUDHL10 cells, 3 h treatment, median
# Description: as §1, §2, §3, §4, §5
# SUDHL5 [3] = test: Anti-proliferative effect (CellTiter-Glo, 72 h), SUDHL5; type: cell-based; settings: SUDHL5 cells, antiproliferation, 72 h incubation, median, read-out: Antiproli SUDHL5 [M] (median)
# Description: (§6) Assessment of the Anti-Proliferative Effect of Compounds in Different Cell Lines
# (§7) The impact of compounds on the proliferation of different cell lines was assessed using the CellTiter-Glo® Luminescent Cell Viability reagent from Promega (G7573). Of note, SUDHL10 and SUDHL5 (DLBCL), NCI-H929 (Multiple Myeloma), A2780 (ovarian carcinoma) as well as MV-4-11(AML) cells are sensitive to MCL-1 inhibition.
# (§8) In parallel, cells were plated in a reference (day 0) plate for time zero determination.
# (§9) Rim wells were excluded. The cells were incubated for 72 h hours in a humidified incubator at 37° C. The day 0 plate was measured by adding 30 μl/well of CTG solution (CellTiter-Glo® Luminescent Cell Viability reagent, Promega G7573) to time zero wells in the reference plate followed by a 10 minutes incubation and luminescence reading at 0.1 ms, using the PHERAstar FS microplate reader (BMG Labtech).
# (§10) After 72 h incubation, the treated plates were measured in the same way as the day 0 plate mentioned above.
# A2780 = test: Anti-proliferative effect (CellTiter-Glo, 72 h), A2780; type: cell-based; settings: A2780 cells, median, read-out: IC50 antiproliferation assay A2780 [M] (median)
# Description: as §6, §7, §8, §9, §10
# SUDHL5 [4] = test: Induction of cytotoxicity (CellTiter-Glo, 5 h), SUDHL5
# SUDHL10 [5] = test: Induction of cytotoxicity (CellTiter-Glo, 5 h), SUDHL10
# [6] = read-out: Cytotox SUDHL5 [M] (median), SUDHL5 cells, cytotoxicity induction, CellTiter-Glo, 5 h incubation, median
# [7] = read-out: Cytotox SUDHL10 [M] (median), SUDHL10 cells, cytotoxicity induction, CellTiter-Glo, 5 h incubation, median
# [8] = Homo sapiens, SU-DHL-5, 5 h, read-out: Cytotox SUDHL5 [M] (median), SUDHL5 cells, cytotoxicity induction, CellTiter-Glo, 5 h incubation, median
# [9] = Homo sapiens, SU-DHL10, 5 h, read-out: Cytotox SUDHL10 [M] (median), SUDHL10 cells, cytotoxicity induction, CellTiter-Glo, 5 h incubation, median
# Sequence of MCL-1 (Q07820 whole entry): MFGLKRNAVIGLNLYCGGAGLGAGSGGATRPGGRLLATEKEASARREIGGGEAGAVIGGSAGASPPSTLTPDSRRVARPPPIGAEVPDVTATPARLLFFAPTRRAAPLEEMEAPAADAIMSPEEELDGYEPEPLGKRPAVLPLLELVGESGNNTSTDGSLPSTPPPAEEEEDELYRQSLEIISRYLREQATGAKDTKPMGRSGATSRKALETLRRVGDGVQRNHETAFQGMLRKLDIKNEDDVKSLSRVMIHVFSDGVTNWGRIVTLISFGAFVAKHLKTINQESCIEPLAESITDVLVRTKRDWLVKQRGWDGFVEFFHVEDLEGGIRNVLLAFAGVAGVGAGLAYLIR
Compound,IC50 (MCL-1),EC50 (SUDHL5 [1]),EC50 (SUDHL10 [2]),IC50 (SUDHL5 [3]),IC50 (A2780),IC50 (SUDHL5 [4]; [6]),IC50 (SUDHL10 [5]; [7]),"EC50 (SUDHL5 [1]; Homo sapiens, SU-DHL-5, 3 h)","EC50 (SUDHL10 [2]; Homo sapiens, SU-DHL10, 3 h)","IC50 (SUDHL5 [3]; Homo sapiens, SU-DHL-5, 72 h)","IC50 (A2780; Homo sapiens, A2780, 72 h)",IC50 (SUDHL5 [4]; [8]),IC50 (SUDHL10 [5]; [9])
"CCn1nc(C2CC2)c2c1COCCCCn1c(C(=O)O)c(CCCOc3cccc4ccccc34)c3cccc-2c31 (single isomer, unassigned; enantiomer 2) [Example 090, 3-cyclopropyl-1-ethyl-7-[3-(naphthalen-1-yloxy)propyl]-1,10,11,12,13,15-hexahydropyrazolo[4′3′:9,10][1,6]oxazacycloundecino[8,7,6-hi]indole-8-carboxylic acid-N-ethylethanamine Salt (Enantiomer 2)]",0.0103 µM,> 33 µM,> 33 µM,1.5e-05 M,1.98e-05 M,> 3.3e-05 M,> 3.3e-05 M,,,,,,
"Cc1c2c(nn1CC(F)(F)F)COCCCCn1c(C(=O)O)c(CCCOc3cccc4ccccc34)c3cccc-2c31 [Example 241, 3-methyl-7-[3-(naphthalen-1-yloxy)propyl]-2-(2,2,2-trifluoroethyl)-210,11,12,13,15-hexahydropyrazolo[4′,3′:9,10][1,6]oxazacycloundecino[8,7,6-hi]indole-8-carboxylic Acid]",0.00751 µM,,,,,,,3.75 µM,17.1 µM,9.89e-06 M,2.89e-05 M,4.64e-06 M,1.92e-05 M
"CCc1nn(C)c2c1-c1c(C)ccc3c(C(C)CCOc4cccc5cc(F)ccc45)c(C(=O)O)n(c13)CCCCOC2 (single isomer, unassigned) [Example 263, 3-ethyl-7-{4-[(6-fluoronaphthalen-1-yl)oxy]butan-2-yl}-1,4-dimethyl-1,10,11,12,13,15-hexahydropyrazolo[4′,3′:9,10][1,6]oxazacycloundecino[8,7,6-hi]indole-8-carboxylic Acid]",0.926 µM,> 33 µM,> 33 µM,4.61e-06 M,1.01e-05 M,> 3.3e-05 M,2.79e-05 M,,,,,,
"Cn1nc(C(F)(F)F)c2c1COCCCCn1c(C(=O)O)c(CCCOc3cccc4ccccc34)c3cccc-2c31 (racemic) [Example 216, (rac)-1-methyl-7-[3-(naphthalen-1-yloxy)propyl]-3-(trifluoromethyl)-1,10,11,12,13,15-hexahydropyrazolo[4′,3′:9,10][1,6]oxazacycloundecino[8,7,6-hi]indole-8-carboxylic Acid]",0.0058 µM,,,,,,,10 µM,28.7 µM,1.27e-05 M,2.02e-05 M,1.04e-05 M,3.11e-05 M
"Cn1nc(COc2ccc(N3CCN(C(=O)OC(C)(C)C)CC3)cc2)c2c1COCCCCn1c(C(=O)O)c(CCCOc3cccc4ccccc34)c3cccc-2c31 (racemic) [Example 1-6, (rac)-3-({4-[4-(tert-butoxycarbonyl)piperazin-1-yl]phenoxy}methyl)-1-methyl-7-[3-(naphthalen-1-yloxy)propyl]-1,10,11,12,13,15-hexahydropyrazolo[4′,3′:9,10][1,6]oxazacycloundecino[8,7,6-hi]indole-8-carboxylic Acid]",0.0187 µM,,,,,,,7.67 µM,11.9 µM,1.37e-06 M,,1.15e-05 M,> 3.3e-05 M
"Cn1nc(COC2CC2)c2c1COCCCCn1c(C(=O)O)c(CCCOc3cccc4ccccc34)c3cccc-2c31 (single isomer, unassigned) [Example 214, 3-[(cyclopropyloxy)methyl]-1-methyl-7-[3-(naphthalen-1-yloxy)propyl]-1,10,11,12,13,15-hexahydropyrazolo[4′,3′:9,10][1,6]oxazacycloundecino[8,7,6-hi]indole-8-carboxylic Acid]",0.00524 µM,14.9 µM,> 33 µM,,> 3.3e-05 M,1.14e-05 M,,,20.7 µM,9.08e-06 M,2.9e-05 M,,
"COC1(c2ccc(OCc3nn(C)c4c3-c3cccc5c(CCCOc6cccc7ccccc67)c(C(=O)O)n(c35)CCCCOC4)cc2)CCOCC1 (racemic) [Example 1-65, (rac)-3-{[4-(4-methoxytetrahydro-2H-pyran-4-yl)phenoxy]methyl}-1-methyl-7-[3-(naphthalen-1-yloxy)propyl]-1,10,11,12,13,15-hexahydropyrazolo[4′,3′:9,10][1,6]oxazacycloundecino[8,7,6-hi]indole-8-carboxylic Acid]",0.031 µM,,,,,,,16.3 µM,17.5 µM,3.71e-06 M,,> 3.3e-05 M,3.13e-05 M
"Cn1nc(CO)c2c1COCCCCn1c(C(=O)O)c(CCCOc3cccc4ccccc34)c3cccc-2c31 (racemic) [Example 1-95, (rac)-3-(hydroxymethyl)-1-methyl-7-[3-(naphthalen-1-yloxy)propyl]-1,10,11,12,13,15-hexahydropyrazolo[4′,3′:9,10][1,6]oxazacycloundecino[8,7,6-hi]indole-8-carboxylic Acid]",0.0039 µM,,,,,,,10.8 µM,22.7 µM,4.8e-06 M,,1.98e-05 M,> 3.3e-05 M
"CN(C)S(=O)(=O)N1CCN(c2ccc(OCc3nn(C)c4c3-c3cccc5c(CCCOc6cccc7ccccc67)c(C(=O)O)n(c35)CCCCOC4)cc2)CC1 (single isomer, unassigned; enantiomer 1) [Example 1-19, 3-({4-[4-(dimethylsulfamoyl)piperazin-1-yl]phenoxy}methyl)-1-methyl-7-[3-(naphthalen-1-yloxy)propyl]-1,10,11,12,13,15-hexahydropyrazolo[4′,3′:9,10][1,6]oxazacycloundecino[8,7,6-hi]indole-8-Carboxylic acid (Enantiomer 1)]",0.0527 µM,17.2 µM,20.6 µM,5.87e-06 M,,2.7e-05 M,2.52e-05 M,,,,,,
